Data reported in patent publication US20240327425A1, “KRAS G12D INHIBITOR AND USE THEREOF” (SHANGHAI DE NOVO PHARMATECH CO., LTD., priority 2021, published 2024).

Columns and labels:
[1] = test system: phosphorylation level of ERK1/2 in ASPC-1 human pancreatic cancer cells; experiment: pERK cell level assay (PHOSPHO-ERK1/2 HTRF kit); format: cell-based; conditions: Aspc-1 cells, 4 hours incubation
Protocol: In this experiment, the phosphorylation level of ERK1/2 in AGS human gastric cancer cells or ASPC-1 human pancreatic cancer cells was detected using PHOSPHO-ERK1/2 (THR202/TYR 204) (Cisibo, 64ERKPEH) kit, and the inhibitory effect of the compounds on KRAS G12D was investigated based on the phosphorylation level of ERK1/2.
On day 1, the density of AGS cell (ATCC) suspension was adjusted to 2.1×10^5 cells/mL, then the suspension was spread in a 96-well plate at 95 μL/well so that there were 2×10^4 cells per well, and the cell culture plate was incubated in a 37° C., 5% CO2 incubator for overnight. On day 2, the compound was serially diluted with 100% dimethyl sulfoxide, and then further diluted with a complete culture medium (RPMI-1640+10% FBS+1% PS) to make a working solution of the compound, which was added to a 96-well cell culture plate at 5 μL/well, and incubated in a 37° C., 5% CO2 incubator for 4 hours. After the incubation was completed, the culture medium was discarded, then 1× lysis buffer was added thereto at 50 μL/well, and the plate was shaken at room temperature for 30 minutes. 16 μL of lysis buffer was added to a white 384-well shallow well plate, then 4 μL of pre-formulated antibody mixture was added thereto, and the plate was sealed with microplate sealer and incubated at room temperature for overnight. On day 3, detection was performed on a TECAN M1000 Pro microplate reader using the HTRF setting, and the IC50 value of the compound was calculated.

[2] = target: Human KRAS G12D His-tagged protein (Homo sapiens (Human), UniProt P01116, G12D); experiment: KRAS G12D binding assay (TR-FRET); conditions: GDP 20 nM, GTP-Red
Protocol: The binding ability of the compound to KRAS G12D protein was detected by TR-FRET method, and the inhibitory activity of the compound on KRAS G12D protein was evaluated. Human KRAS G12D His-tagged (Cisbio, 63ADK000CB27PEG) protein was 100-fold diluted with PPI Eu detection buffer (Cisbio, 61DB9RBF), then 5 μL of which was added to a 384-well plate and centrifuged at 2000 rpm for 40 seconds. A 10 mM concentrated stock solution of the test compound was prepared with dimethyl sulfoxide, 3-fold serially diluted, then diluted to make a working solution (0.5% DMSO) with PPI Eu detection buffer, added to a 384-well plate at 5 μL/well, with the control group added with 0.5% dimethyl sulfoxide and the highest concentration of the test compound at 10 μM, and centrifuged at 2000 rpm for 40 seconds. An 80 nM GDP standard working solution (Cisbio, 63ADK000CB27PEG) was prepared with PPI Eu detection buffer and added to a 384-well plate at 5 μL/well, with the final concentration of GDP standard working solution at 20 nM. The plate was centrifuged at 2000 rpm for 40 seconds and reacted at room temperature for 30 minutes. 1×6His Eu cryptate antibody and GTP-Red reagent (Cisbio, 63ADK000CB27PEG) were prepared with PPI Eu detection buffer, mixed in a volume ratio of 1:1, 5 μL of which was then added to a 384-well plate, centrifuged at 2000 rpm for 40 seconds, and incubated at room temperature for 30 minutes. The fluorescence intensity at 620 nm and 665 nm was detected by a microplate reader, and the inhibitory activity of the compound on KRAS G12D protein was obtained by fitting a four-parameter equation.

[3] = test system: ASPC-1 human pancreatic cancer cells; experiment: Cell proliferation assay (Cell Titer-Glo), ASPC-1; format: cell-based
Protocol: (§1) On day 1, AGS human gastric cancer cells, ASPC-1 human pancreatic cancer cells, or GP2D human colon cancer cells (Nanjing Cobioer Biosciences Co. Ltd.) in the logarithmic growth phase were taken, digested with an appropriate amount of trypsin, formulated into a single cell suspension using RPMI 1640 (Gibco) medium containing 10% fetal bovine serum and 1% penicillin-streptomycin, counted to adjust the cell density, inoculated in a 96-well plate at 95 μL/well so that there were 3000 cells per well, and then the cell culture plate was incubated in a 37° C., 5% CO2 incubator for overnight. On day 2, a 10 mM concentrated stock solution of KRAS G12D inhibitor was 3-fold serially diluted with dimethyl sulfoxide solution, and then diluted with AGS complete culture medium to make a working solution, which was added to a cell culture plate at 5 μL/well so that the compound had the highest concentration of 10 μM and the lowest concentration of 0.0015 μM, and the control group was 0.5% dimethyl sulfoxide. The cell culture plate was briefly centrifuged and then incubated in a CO2 incubator for 72 hours. On day 5, the cell culture plate was taken out, added with Cell Titer-Glo (Promega) detection reagent in each well, incubated in the dark for 10 minutes, and then luminescence was detected using a microplate reader (Tecan, Infinite M1000 Pro). Data were analyzed using Graphpad software, and curve fitting was performed with four-parameter equation and the IC50 value of the inhibitor was calculated.

[4] = test system: GP2D human colon cancer cells subcutaneous xenograft tumor; experiment: In vivo pharmacodynamic experiment of subcutaneous xenograft tumor model in mice of GP2D human colon cancer cells; conditions: BALB/c nude mice; for Tumor volume (11 days, mm^3): 11 days (at grouping)
Protocol: Cell culture: GP2D human colon cancer cells were maintained in monolayer culture in DMEM culture medium containing 10% fetal bovine serum in a constant temperature incubator containing 5% CO2 at 37° C. Tumor cells were passaged twice a week. Cells in the exponential growth phase were harvested and counted for inoculation.
Experimental animals: BALB/c nude mice, 6 to 8 weeks, 18 to 22 g, purchased from Jiangsu GemPharmatech Co. Ltd.
Experimental method: GP2D cell line ([…]) was inoculated subcutaneously on the right back of experimental mice. The inoculation volume of each mouse was 0.1 mL. The growth of the tumor was observed regularly. When the tumor grew to about 150 mm^3, the mice were randomly grouped according to the tumor size and body weight, and the drug was administrated according to the administration plan shown in Table 1. The body weight and tumor size were measured twice a week throughout the experiment.
tumor volume (mm^3)=0.5×(tumor long diameter×tumor short diameter^2). Tumor size calculation formula: […]

[5] = test system: GP2D human colon cancer cells; experiment: Cell proliferation assay (Cell Titer-Glo), GP2D; format: cell-based; conditions: 72 hours
Protocol: as §1

[6] = Homo sapiens, ASPC1, pERK1/2 (THR202/TYR204)
[7] = Homo sapiens, ASPC1, Aspc-1, 72 hours

Sequence of Human KRAS G12D His-tagged protein (P01116-2 other isoform, or with tags, fused parts or gaps G12D): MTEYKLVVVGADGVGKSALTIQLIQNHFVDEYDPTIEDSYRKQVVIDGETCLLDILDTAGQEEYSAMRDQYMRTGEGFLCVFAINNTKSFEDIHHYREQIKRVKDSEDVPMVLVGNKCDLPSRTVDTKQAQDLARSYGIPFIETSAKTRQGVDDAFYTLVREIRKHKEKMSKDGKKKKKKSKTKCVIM

Nc1nc2c(-c3c(Cl)c4c5c(nc(OC[C@@]67CCCN6C[C@H](F)C7)nc5c3F)N3C[C@H]5CC[C@H](N5)[C@H]3CO4)cccc2s1 (single isomer, unassigned) [Compound I-12-2]
IC50 [1, 6]: 8.23 nM | IC50 [2]: 3.01 nM

[2H]C([2H])(Oc1nc2c3c(c(Cl)c(-c4cccc5sc(N)c(C#N)c45)c(F)c3n1)OC[C@@H]1[C@@H]3CC[C@H](CN21)N3)[C@@]12CCCN1C[C@H](F)C2 (single isomer, unassigned) [Compound I-24-2]
IC50 [3, 7]: 6.66 nM | IC50 [2]: 1.75 nM

Cc1ccc2sc(N)c(C#N)c2c1-c1c(Cl)c2c3c(nc(OC[C@@]45CCCN4C[C@H](F)C5)nc3c1F)N1C[C@H]3CC[C@H](N3)[C@H]1CO2 [Compound I-21, 2-amino-4-((5aS,6S,9R)-3-chloro-1-fluoro-13-(1-((2R,7aS)-2-fluorohexahydro-1H-pyrrolizin-7a-yl)methoxy)-5a,6,7,8,9,10-hexahydro-5H-6,9-epiminoazepino[2′,1′:3,4][1,4]oxazepino[5,6,7-de]quinazolin-2-yl)-5-methylbenzo[b]thiophene-3-carbonitrile ditrifluoroacetate]
IC50 [3, 7]: 16.9 nM | IC50 [2]: 9.76 nM

C#Cc1c(F)ccc2cc(O)cc(-c3ncc4c(N5CC6CCC(C5)N6)nc(OC[C@@]56CCCN5C[C@H](F)C6)nc4c3F)c12 [Ref. A, MRTX1133, reference compound]
Tumor volume (11 days, mm^3) ([4]; 3 mg/kg i.p. twice a day): 139.25 ± 17.31 mm^3 | Tumor volume (21 days, mm^3) ([4]; 3 mg/kg i.p. twice a day): 137.35 ± 18.79 mm^3 | T/C (%) ([4]; 3 mg/kg i.p. twice a day): 30.3% | Tumor regression rate (%) ([4]; 3 mg/kg i.p. twice a day): −1.4% | Tumor volume (11 days, mm^3) ([4]; 10 mg/kg i.p. twice a day): 139.90 ± 20.43 mm^3 | Tumor volume (21 days, mm^3) ([4]; 10 mg/kg i.p. twice a day): 79.77 ± 13.97 mm^3 | T/C (%) ([4]; 10 mg/kg i.p. twice a day): 17.6% | Tumor regression rate (%) ([4]; 10 mg/kg i.p. twice a day): −43.0%

N#Cc1c(N)sc2ccc(F)c(-c3c(Cl)c4c5c(nc(OC[C@@]67CCCN6C[C@H](F)C7)nc5c3F)N3C[C@H]5CC[C@H](N5)[C@H]3CO4)c12 [Compound I-14, 2-amino-4-((5aS,6S,9R)-3-chloro-1-fluoro-13-(((2R,7aS)-2-fluorohexahydro-1H-pyrrolizin-7a-yl)methoxy)-5a,6,7,8,9,10-hexahydro-5H-6,9-epiminoazepino[2′,1′:3,4][1,4]oxazepino[5,6,7-de]quinazolin-2-yl)-5-fluorobenzo[b]thiophene-3-carbonitrile ditrifluoroacetate]
IC50 ([1]; pERK1/2 (THR202/TYR204)): 1.29 nM | IC50 [5]: 0.124 nM | IC50 ([3]; Aspc-1, 72 hours): 6.76 nM | IC50 [2]: 8.52 nM

N#Cc1c(N)sc2cccc(-c3c(Cl)c4c5c(nc(OC[C@@]67CCCN6C[C@H](F)C7)nc5c3F)N3C[C@H]5CC[C@H](N5)[C@H]3CO4)c12 [Compound I-7, 2-amino-4-((5aS,6S,9R)-3-chloro-1-fluoro-13-(((2R,7aS)-2-fluorohexahydro-1H-pyrrolizin-7a-yl)methoxy)-5a,6,7,8,9,10-hexahydro-5H-6,9-epiminoazepino[2′,1′:3,4][1,4]oxazepino[5,6,7-de]quinazolin-2-yl)benzo[b]thiophene-3-carbonitrile ditrifluoroacetate]
IC50 ([1]; pERK1/2 (THR202/TYR204)): 1.59 nM | IC50 ([3]; Aspc-1, 72 hours): 5.53 nM | IC50 [2]: 6.59 nM

CC(Oc1nc2c3c(c(Cl)c(-c4cccc5sc(N)c(C#N)c45)c(F)c3n1)OC[C@@H]1[C@@H]3CC[C@H](CN21)N3)[C@@]12CCCN1C[C@H](F)C2 (stereo partly drawn) [Compound I-17, 2-amino-4-((5aS,6S,9R)-3-chloro-1-fluoro-13-(1-((2R,7aS)-2-fluorohexahydro-1H-pyrrolizin-7a-yl)ethoxy)-5a,6,7,8,9,10-hexahydro-5H-6,9-epiminoazepino[2′,1′:3,4][1,4]oxazepino[5,6,7-de]quinazolin-2-yl)benzo[b]thiophene-3-carbonitrile ditrifluoroacetate]
IC50 ([1]; pERK1/2 (THR202/TYR204)): 5.58 nM | IC50 [5]: 0.497 nM | IC50 ([3]; Aspc-1, 72 hours): 31.9 nM | IC50 [2]: 7.77 nM

[2H]C1([2H])CC[C@@]2(COc3nc4c5c(c(Cl)c(-c6cccc7sc(N)c(C#N)c67)c(F)c5n3)OC[C@@H]3[C@@H]5CC[C@H](CN43)N5)C[C@@H](F)CN12 (single isomer, unassigned) [Compound I-20-2]
IC50 [3, 7]: 6.49 nM | IC50 [2]: 1.89 nM

[2H]C1([2H])CC[C@@]2(C([2H])([2H])Oc3nc4c5c(c(Cl)c(-c6cccc7sc(N)c(C#N)c67)c(F)c5n3)OC[C@@H]3[C@@H]5CC[C@H](CN43)N5)C[C@@H](F)CN12 (single isomer, unassigned) [Compound I-27-2]
IC50 ([5]; Homo sapiens): 0.133 nM | IC50 [2]: 1.4 nM

N#Cc1c(N)sc2c1C(c1c(Cl)c3c4c(nc(OC[C@@]56CCCN5C[C@H](F)C6)nc4c1F)N1C[C@H]4CC[C@H](N4)[C@H]1CO3)=CCC2 [Compound I-25, 2-amino-4-((5aS,6S,9R)-3-chloro-1-fluoro-13-(((2R,7aS)-2-fluorohexahydro-1H-pyrrolizin-7a-yl)methoxy)-5a,6,7,8,9,10-hexahydro-5H-6,9-epiminoazepino[2′,1′:3,4][1,4]oxazepino[5,6,7-de]quinazolin-2-yl)-6,7-dihydrobenzo[b]thiophene-3-carbonitrile ditrifluoroacetate]
IC50 [3, 7]: 25.8 nM | IC50 [2]: 12 nM

N#Cc1c(N)sc2c(F)ccc(-c3c(Cl)c4c5c(nc(OC[C@@]67CCCN6C[C@H](F)C7)nc5c3F)N3C[C@H]5CC[C@H](N5)[C@H]3CO4)c12 [Compound I-11, 2-amino-4-((5aS,6S,9R)-3-chloro-1-fluoro-13-(((2R,7aS)-2-fluorohexahydro-1H-pyrrolizin-7a-yl)methoxy)-5a,6,7,8,9,10-hexahydro-5H-6,9-epiminoazepino[2′,1′:3,4][1,4]oxazepino[5,6,7-de]quinazolin-2-yl)-7-fluorobenzo[b]thiophene-3-carbonitrile]
IC50 [1, 6]: 1.01 nM | IC50 ([5]; Homo sapiens): 0.336 nM | IC50 [3, 7]: 12.6 nM | IC50 [2]: 11.2 nM
